Consider 71 compounds from PubChem BioAssay AID179 (DTP/NCI, 2004).

The experiment has as its system CEM cells HIV-1 protection, formazan growth assay. Description: NCI AIDS Antiviral Assay. To be noted: for IC50: measured here: growth of uninfected CEM cells. Summed up: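 Five concentrations of each compound were applied to infected and uninfected human CEM cells. Protection from HIV-1 was judged from growth measured with a soluble formazan assay.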

Each structure is given as a SMILES string. “And” between values parts separate entries of the source, which are not always exact repeats. Equal entries are not always repeated. The source made the active and inactive calls.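 The calls were made as follows: active = compounds giving half or more protection of infected cells from virus-caused growth loss, again on retest; inactive = the rest.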 Where a SMILES comes first, the peptide text is derived from it. The star is where a group is joined. Boc = CC(C)(C)OC(=O)*

As for `CC(=O)N(C(C)=O)C1=C2c3ccccc3N(S(=O)(=O)c3ccccc3)C2n2c(=O)n(-c3ccccc3)c(=O)n2C1` (configuration not stated), the EC50 was over 9.33 µM and the IC50 is over 9.33 µM.
`COc1ccc(C2c3cc4c(cc3OC(N3CCOCC3)C2C)OCO4)c(OC)c1OC` (configuration not stated): the EC50 is over 200 µM and the IC50 stood at 9.55 µM.
Turning to `O=c1[nH]c(=O)n(C2CC(O)C(CO)O2)cc1C#Cc1cc(C(F)(F)F)cc(C(F)(F)F)c1` (configuration not stated), the EC50 is over 40.7 µM and the half-inhibitory concentration (IC50) was over 40.7 µM.
As for `Nc1nc(NCCOCP(=O)(O)O)c(C=O)c(=O)[nH]1`, the EC50 was over 200 µM and the IC50 was over 200 µM.
In the case of `S=C1N=C(Cl)/C(=C\c2ccco2)N1`, the EC50 is over 200 µM and the half-maximal inhibitory concentration (IC50) is over 200 µM.
For the compound `CC(=O)/C(=C/n1ccc(=O)[nH]c1=S)C(=O)Nc1ccc([N+](=O)[O-])cc1`, the EC50 is over 200 µM and the concentration for half-maximal inhibition (IC50) came out at 102 µM.
Take `CC1=NN(C(=O)c2ccc(Cl)cc2)C(=O)/C1=C/c1cccc([N+](=O)[O-])c1`: the EC50 is over 19.5 µM and the IC50 was over 19.5 µM.
In the case of `O=C1CCCCCCCCCCC(=O)C2CCOCCOCCOCCC1Cc1cccc(n1)C2`, the EC50 was over 138 µM and the concentration for half-maximal inhibition (IC50) is over 138 µM.
`Cc1cn(C2CC(N)C(C(=O)NCC(=O)O)O2)c(=O)[nH]c1=O` (configuration not stated): the EC50 was over 200 µM and the IC50 was over 200 µM.
On to `CC(=O)OC12/C(=N/O)CCCCCC1c1ccccc12` (configuration not stated), for which the EC50 was over 200 µM and the IC50 is over 200 µM.
In the case of `CCOc1ccc(NC(=O)C(=O)CC(=O)c2c(C)n([O-])c3ccccc3[n+]2=O)cc1`, the EC50 was over 6.61 µM and the IC50 was over 6.61 µM.
For the compound `CC1=NC(C)(COC(=O)C2(C)NC(C)(CO)CO2)COC1=O` (configuration not stated), the EC50 is over 200 µM and the IC50 was over 200 µM.
For the compound `COc1ccc2c(c1)N(S(=O)(=O)c1ccc(C)cc1)C[C@@H]1c3cc(O)c(OCc4ccccc4)cc3O[C@H]21`, the outcome was inactive.
Turning to `Cc1ccc(Nc2nc(C)c(C(=O)C/C(=N\NC(N)=S)C(=O)Nc3ccc(Cl)cc3C)s2)cc1`, the EC50 is over 200 µM and the half-inhibitory concentration (IC50) was over 200 µM.
Regarding `Cc1cccc(N2C(=O)C3c4[nH]c5ccccc5c4C4CCC(C(C)(C)C)CC4C3C2=O)c1C` (configuration not stated), the EC50 is over 200 µM and the IC50 is 22.9 µM.
For the compound `COC(=O)c1ccc(CO/N=C(\c2ccccc2)c2cccnc2)cc1`, the EC50 was over 200 µM and the IC50 is 47.9 µM.
For `O=S(=O)(F)c1cc(Cl)ccc1C[P+](c1ccccc1)(c1ccccc1)c1ccccc1` the same measures were over 200 µM and 64.6 µM.
As for `O=C(O)CNS(=O)(=O)c1ccc(NC(=O)c2ccc([N+](=O)[O-])cc2)cc1`, the result was inactive.
Consider `Cc1ccc(S(=O)(=O)N/N=C\C2c3ccccc3-c3ccccc32)cc1`, for which the EC50 is over 200 µM and the IC50 stood at 2.19 µM.
Regarding `C[C@]12CC[C@H](OC(=O)CCC(=O)O)CC1=CC[C@@H]1C2CC[C@@]2(C)C1CC[C@@H]2c1nc(-c2ccccc2)cs1` (some centres not stated), the EC50 is over 46.8 µM and the IC50 came to 17.4 µM.
`COC(=O)c1cc(/C=C/C(=O)Cc2ccccc2)cn1S(=O)(=O)c1ccccc1`: the EC50 was over 200 µM and the IC50 is over 200 µM.
Regarding `C=CCc1cc(OC)c(O)c(C(=O)/C=C/c2ccc(OC)c(OC)c2)c1`, the EC50 was over 14.8 µM and the IC50 was over 14.8 µM.
Consider `O=C1C=CC2C3C(=O)N(c4ccccc4)C(=O)C3C1N2Cc1ccccc1` (configuration not stated), for which the EC50 was over 1.17 µM and the IC50 was over 1.17 µM.
`COc1cc(OC)c2c(c1)C(=O)c1cc(C)cc(O)c1C2=O`: the outcome was inactive.
Turning to `CC[C@@H]1C[C@H]2CC3c4[nH]c5ccc(O)cc5c4CCN(C2)C31`, the EC50 was over 372 µM and the IC50 worked out at 93.3 µM.
For the compound `CC(C)SSC(=O)N1CCCC1C(=O)O` (configuration not stated), the EC50 was over 200 µM and the IC50 was over 200 µM.
Consider `COC(=O)c1ccccc1/C=C1\Cc2c(C)cc(C)cc2C1=O`, for which the result was inactive.
`Cc1cn(C(C)OCCN(O)C(=O)Oc2ccccc2)c(=O)[nH]c1=O` (configuration not stated): the EC50 was over 200 µM and the IC50 was over 200 µM.
In the case of `N#CC(/C=C/c1ccccc1)Nc1ccccc1` (configuration not stated), the EC50 is over 22.4 µM and the IC50 was over 22.4 µM.
For the compound `CC(=O)NC(CCSSCCC(NC(C)=O)C(=O)ON1C(=O)CCC1=O)C(=O)ON1C(=O)CCC1=O` (configuration not stated), the EC50 is over 200 µM and the IC50 is over 200 µM.
Take `[O-]c1c(-c2cccc3ccccc23)sc(-c2cccc3ccccc23)[n+]1-c1ccccc1`: the result was inactive.
Turning to `COC(=O)c1cc(=O)n(C)c2ccc(OC)cc12`, the EC50 is over 200 µM and the concentration for half-maximal inhibition (IC50) was found to be 166 µM.
With `CC(=O)OCC(OC(C)=O)C(OC(C)=O)C(OC(C)=O)C(C=NN(C(C)=O)S(=O)(=O)c1ccc(/C=C2\NC(=O)NC2=O)cc1)OC(C)=O` (configuration not stated), the EC50 was over 200 µM; the IC50 was 87.1 µM and 117 µM.
`O=C(O)C12CCCCC1CCCC2` (configuration not stated): the EC50 was over 372 µM and the IC50 was over 372 µM.
As to `COC(=O)/C=C/c1cc(OC)c(OC)c(OC)c1`, the EC50 is over 251 µM and the 50% inhibitory concentration (IC50) turned out to be 170 µM.
For `CC(/C=N/N(C)C1=NCCCN1)=N/N(C)C1=NCCCN1` the same measures were over 200 µM and over 200 µM.
With `Cc1ccc(NC(=S)NNC(=O)c2cc(-c3ccccc3)nc3ccccc23)cc1`, the EC50 was over 200 µM and the IC50 was 12.9 µM.
Consider `CCOC(=O)Cc1nc2sc3c(c2c(=O)[nH]1)CCCC3`, for which the EC50 is over 324 µM and the IC50 was over 324 µM.
Take `CC1NC(/C(=C/c2ccccc2O)NC(=O)c2ccccc2)OC1=O` (configuration not stated): the EC50 was over 50.1 µM and the IC50 is over 50.1 µM.
On to `Cc1ccc(N=Nc2c(C)n(-c3ccc4scnc4c3)c(=S)n(-c3ccccc3)c2=O)cc1`, for which the EC50 is over 75.9 µM and the IC50 is over 75.9 µM.
As for `O=S(Nc1ccccc1)c1ccc(Cl)cc1` (configuration not stated), the EC50 was over 200 µM and the IC50 was 81.3 µM.
For `OC[C@@H](O)[C@@H](O)c1cnn(-c2ccccc2)n1` the same measures were over 200 µM and over 200 µM.
For `CCOC(=O)[C@@]12C[C@](/C=C/OC)(O[Si](C)(C)C)[C@@]13c1cc(OC)c(OC)cc1CCN3C(=O)C2=O`, the EC50 was over 200 µM and the IC50 is over 200 µM.
As for `N#Cc1nc(NC(=O)c2ccccc2C(=O)O)c(C#N)[nH]1`, the EC50 is over 200 µM and the concentration for half-maximal inhibition (IC50) was over 200 µM.
Take `Cc1ccc(S(=O)(=O)NCNS(=O)(=O)c2ccc(C)cc2)cc1`: the EC50 was over 200 µM and the concentration for half-maximal inhibition (IC50) was over 200 µM.
With `CCCCn1c(C)c2c(c1C)C(=O)N(CCN1CCN(c3ccccc3Cl)CC1)C2=O`, the EC50 is over 200 µM and the IC50 is over 200 µM.
`O=S(=O)(NC1CCC[C@H]1O)c1ccccc1` (some centres not stated): the result was inactive.
For the compound `C/C=C/C1C=Cc2ccccc2C1(C)C1=NC(C)(C)CO1` (configuration not stated), the EC50 is over 25.7 µM and the IC50 is over 25.7 µM.
For `CCCCOC(=O)C1CC2OC2CC1C(=O)OCCOCCOC(=O)C1CC2OC2CC1C(=O)OCCCC` (configuration not stated), the EC50 is over 200 µM and the IC50 is 51.3 µM.
With `Cc1cc2c(=O)cc(-c3ccc(C(=O)O)cc3)oc2c(C(=O)O)c1C`, the result was inactive.
`CCOCC(NC(=O)C(CC(C)C)NC(=O)OC(C)(C)C)C(N)=O` (stereo not drawn) (Boc-Leu-Ser(Et)-NH2; configuration not given here): the EC50 was over 200 µM and the 50% inhibitory concentration (IC50) was over 200 µM.
Regarding `COc1cc(OC)c(OC)cc1/C=N/N=C(\N)NO`, the EC50 is over 200 µM and the concentration for half-maximal inhibition (IC50) is over 200 µM.
In the case of `COc1cccc(/C=N/[N-]C(=O)c2ccncc2)c1[O-].[Ni+2].[OH3+]`, the EC50 is over 105 µM and the IC50 was over 105 µM.
With `CCOC(=O)NC(C(F)(F)F)(C(F)(F)F)P(=O)(OCC)OCC`, the EC50 was over 200 µM and the IC50 stood at 11.5 µM.
For the compound `c1ccc2c(c1)Nc1ccccc1O2`, the EC50 was over 97.7 µM and the IC50 amounted to 23.4 µM.
As to `COc1ccc(C(=O)O/N=C2/CCC/C2=C\c2ccccc2)cc1`, the result was inactive.
Consider `Cc1ccc(S(=O)(=O)N/N=C2/CC[C@H](C(C)(C)C)C[C@@H]2C)cc1`, for which the EC50 is over 200 µM and the IC50 came out at 21.9 µM.
Turning to `C[C@]12CCC(=O)C(O)=C1CCC2=O`, the result was inactive.
As for `O=C1C=CC2OC(c3ccccc3)C(O)C2O1` (configuration not stated), the EC50 was over 1070 µM and the half-inhibitory concentration (IC50) was 11.5 µM.
Regarding `CC(C)C1COC(c2ccc3ccccc3c2-c2c(O[Si](C)(C)C(C)(C)C)ccc3ccccc23)=N1` (configuration not stated), the EC50 is over 7.59 µM and the half-inhibitory concentration (IC50) was over 7.59 µM.
Consider `O=c1[nH]c(=O)n(C2CC(O)C(CO)O2)cc1OCc1ccccc1` (configuration not stated), for which the EC50 was over 200 µM and the IC50 is over 200 µM.
Turning to `Nc1nc(Nc2ccccc2)sc1O`, the EC50 was over 200 µM and the IC50 was 195 µM.
`CCc1oc2ccccc2c1C(=O)c1ccc(O)cc1`: the EC50 was over 324 µM and the IC50 came to 53.7 µM.
Turning to `COc1ccc(C2=NN(c3nsc4ccccc34)C(=O)CC2)cc1`, the EC50 was over 40.7 µM and the half-inhibitory concentration (IC50) was over 40.7 µM.
Regarding `CCOC(=O)[C@H]1CSC[C@@H](C(=O)OC)N1`, the EC50 was over 562 µM and the IC50 is over 562 µM.
Consider `CCCc1cc(=O)[nH]c(SCC(=O)O)n1`, for which the EC50 was over 200 µM and the IC50 was over 200 µM.
On to `CCOC(=O)C1C(c2ccc(OC)cc2)c2c([nH][nH]c2=O)CC1(O)OCC` (configuration not stated), for which the result was inactive.
Consider `CC(=O)OCC(=O)[C@@]1(O)CC[C@H]2[C@@H]3CCC4=CC(=O)C[C@H](SC(C)=O)[C@]4(C)[C@H]3CC[C@@]21C`, for which the EC50 was over 200 µM and the IC50 stood at 117 µM.
In the case of `O=C(O)CCCCCCCC(=O)O`, the EC50 is over 1320 µM and the IC50 is over 1320 µM.
As for `CC(=O)Nc1ccc(S(=O)(=O)c2ccc(NC(C)=O)cc2)cc1`, the EC50 was over 200 µM and the IC50 is over 200 µM.
`COc1ccc2c(c1)CCC(OS(=O)(=O)CC13CCC(CC1=O)C3(C)C)C2=O` (configuration not stated): the EC50 was over 200 µM and the IC50 stood at 10.5 µM.
